Source: ChEMBL document CHEMBL1141145, “A chiral benzoquinolizine-2-carboxylic acid arginine salt active against vancomycin-resistant Staphylococcus aureus” (J Med Chem, 2005)
≈ marks a conversion by molar mass, not a printed value.

Tests used:
Staphylococcus aureus [1] = experiment: Minimum inhibitory concentration against methicillin susceptible Staphylococcus aureus before esterase action in rat serum; format: functional
Mus musculus [2] = experiment: Protection of mice infected with MRSA-32 cell suspension after oral administration of compound; format: functional
Staphylococcus aureus [3] = experiment: Minimum inhibitory concentration against methicillin susceptible Staphylococcus aureus after esterase action in rat serum; format: functional
physchem [4] = experiment: physchem
physchem [5] = experiment: physchem; remark: listed apart in the source
physchem [6] = conditions: octanol/water, pH 7.4
physchem [7] = conditions: octanol/water, pH 2
Mus musculus [8] = experiment: Efficacy against mice infected with MRSA-32 upon s.c. administration; format: functional; conditions: MRSA-32, sc
Mus musculus [9] = experiment: Efficacy against mice infected with Staphylococcus aureus ATCC 25923 upon s.c. administration; format: functional; conditions: sc
Mus musculus [10] = experiment: Efficacy against mice infected with MRSA-33 upon s.c. administration; format: functional; conditions: sc
Staphylococcus aureus [11] = experiment: Minimum inhibitory concentration against methicillin susceptible Staphylococcus aureus; format: functional
[12] = Mus musculus, MRSA-32, po, read-out: ED50
[13] = Staphylococcus aureus, read-out: MIC

Row | Compound | MIC (Staphylococcus aureus [1]) [µg/mL] | MIC (Staphylococcus aureus [3]) [µg/mL] | ED50 (Mus musculus [2]; [12]) [mg/kg] | also measured
1 | CO[C@@H]1C(OC2CCN(c3c(F)cc4c(=O)c(C(=O)O)cn5c4c3CC[C@@H]5C)CC2)O[C@@H](CO)[C@@H](O)[C@@H]1O (single isomer, unassigned) | 0.1 (≈ 0.186 µM) | 0.1 (≈ 0.186 µM) | > 100 | –
2 | CCn1cc(C(=O)O)c(=O)c2cc(F)c(N3CCN(C)CC3)cc21 [PEFLOXACIN] | – | – | – | pKa (physchem [4]): 9.97; pKa (physchem [5]): 6.15
3 | C[C@H]1CCc2c(N3CCC(OC(=O)C(C)(C)C)CC3)c(F)cc3c(=O)c(C(=O)O)cn1c23 | 0.5 (≈ 1.12 µM) | 0.25 (≈ 0.562 µM) | > 100 | –
4 | C[C@@H]1CN(c2c(F)c(N)c3c(=O)c(C(=O)O)cn(C4CC4)c3c2F)C[C@H](C)N1 [SPARFLOXACIN] | – | – | – | pKa (physchem [4]): 9.38; logD (physchem [6]): -0.02; pKa (physchem [5]): 6.43; logD (physchem [7]): -0.86
5 | C[C@H]1CCc2c(N3CCC(OC(=O)[C@@H](N)CCC/N=C(\N)N[N+](=O)[O-])CC3)c(F)cc3c(=O)c(C(=O)O)cn1c23.O=C(O)C(F)(F)F | 0.25 | 0.06 | > 75 | –
6 | CC(=O)NC[C@H]1CN(c2ccc(N3CCOCC3)c(F)c2)C(=O)O1 [LINEZOLID] | – | – | – | ED50 (Mus musculus [8]): 1.14 mg/kg; ED50 (Mus musculus [9]): 2.4 mg/kg; ED50 (Mus musculus [10]): 3.1 mg/kg
7 | C[C@H]1CCc2c(N3CCC(OC(=O)C(C)(C)C)CC3)c(F)cc3c(=O)c(C(=O)OCOC(=O)C(C)(C)C)cn1c23 | > 16 | > 16 | > 150 | –
8 | C[C@H]1CCc2c(N3CCC(O)CC3)c(F)cc3c(=O)c(C(=O)O)cn1c23.NCCCC[C@H](N)C(=O)O | – | – | > 100 | MIC (Staphylococcus aureus [11]; [13]): 0.03 µg/mL
9 | C[C@H]1CCc2c(N3CCC(O)CC3)c(F)cc3c(=O)c(C(=O)O)cn1c23.N=C(N)NCCC[C@H](N)C(=O)O (stereo in doubt; 19) | – | – | 90.3 | MIC (Staphylococcus aureus [11]; [13]): 0.03 µg/mL
10 | C[C@H]1CCc2c(N3CCC(OC(=O)[C@H](CCC/N=C(\N)N[N+](=O)[O-])NC(=O)[C@@H](N)CCC/N=C(\N)N[N+](=O)[O-])CC3)c(F)cc3c(=O)c(C(=O)O)cn1c23.O=C(O)C(F)(F)F | 0.5 | 0.12 | > 75 | –
11 | C[C@H]1CCc2c(N3CCC(O)CC3)c(F)cc3c(=O)c(C(=O)O)cn1c23.N=C(N)NCCC[C@H](N)C(=O)O (stereo in doubt; 20) | – | – | – | ED50 (Mus musculus [2]): >100 mg/kg; MIC (Staphylococcus aureus [11]): 0.03 µg/mL
12 | C[C@H]1CCc2c(N3CCC(O)CC3)c(F)cc3c(=O)c(C(=O)OC4CCN(C)CC4)cn1c23 | 2 (≈ 4.37 µM) | 1 (≈ 2.19 µM) | > 100 | –
13 | C[C@H]1CCc2c(N3CCC(O)CC3)c(F)cc3c(=O)c(C(=O)[O-])cn1c23.[K+] | – | – | > 100 | MIC (Staphylococcus aureus [11]; [13]): 0.03 µg/mL
14 | C[C@H]1CCc2c(N3CCC(OC(=O)[C@H](N)CCCN=C(N)N)CC3)c(F)cc3c(=O)c(C(=O)O)cn1c23 | 1 (≈ 1.94 µM) | 0.1 (≈ 0.194 µM) | > 100 | –
15 | CCn1cc(C(=O)O)c(=O)c2cc(F)c(N3CCNCC3)cc21 [NORFLOXACIN] | – | – | – | logD (physchem [6]): -1; pKa (physchem [5]): 6.54; logD (physchem [7]): -1.46

Now from value to compound, other results behind:

Row | MIC (Staphylococcus aureus [1]) [µg/mL] | MIC (Staphylococcus aureus [3]) [µg/mL] | Compound | ED50 (Mus musculus [2]; [12]) [mg/kg] | also measured
16 | 1 (≈ 2.19 µM) | 0.06 (≈ 0.131 µM) | C[C@H]1CCc2c(N3CCC(O)CC3)c(F)cc3c(=O)c(C(=O)OCCN4CCCC4)cn1c23 | > 150 | –
17 | 8 (≈ 17.9 µM) | 2 (≈ 4.48 µM) | CCOC(=O)COC(=O)c1cn2c3c(c(N4CCC(O)CC4)c(F)cc3c1=O)CC[C@@H]2C | > 150 | –
18 | 0.25 (≈ 0.528 µM) | 0.1 (≈ 0.211 µM) | C[C@H]1CCc2c(N3CCC(O)CC3)c(F)cc3c(=O)c(C(=O)OCCN4CCOCC4)cn1c23 | > 100 | –
19 | 8 (≈ 18.5 µM) | 4 (≈ 9.25 µM) | COC(=O)COC(=O)c1cn2c3c(c(N4CCC(O)CC4)c(F)cc3c1=O)CC[C@@H]2C | > 150 | –
20 | 0.5 (≈ 1.06 µM) | 0.12 (≈ 0.254 µM) | C[C@H]1CCc2c(N3CCC(O)CC3)c(F)cc3c(=O)c(C(=O)OCCN4CCNCC4)cn1c23 | > 100 | –
21 | 2 (≈ 4.24 µM) | 0.25 (≈ 0.53 µM) | C[C@H]1CCc2c(N3CCC(O)CC3)c(F)cc3c(=O)c(C(=O)OCCN4CCCCC4)cn1c23 | > 150 | –
22 | 8 (≈ 21.4 µM) | 1 (≈ 2.67 µM) | COC(=O)c1cn2c3c(c(N4CCC(O)CC4)c(F)cc3c1=O)CC[C@@H]2C | > 100 | –
